Like-named read-outs stand apart in the source and are kept apart here.

Among the data in patent publication US12258327B2, “5-membered heteroaryl-containing aminopyridine compounds as EGFR inhibitors” (YUHAN CORPORATION, priority 2021, dated 2025) are IC50 values, retold here.

The target in assay [1] is EGFR L858R/C797S (Homo sapiens, UniProt P00533, C797S/L858R). Description: Biochemical EGFR kinase assay (Lance Ultra TR-FRET), double mutant L858R/C797S. The gist of the method:
(§1)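 Enzyme reactions lasted 1 hour at room temperature with test compounds between 0.003 and 10 μM, followed by 10 mM EDTA quench.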
A general note: Time-resolved FRET reads energy transfer from a long-lived donor to a nearby acceptor.

The target in assay [2] is EGFR del19/T790M/C797S (Homo sapiens, UniProt P00533, C797S/DEL746-750/T790M). In words: Biochemical EGFR kinase assay (Lance Ultra TR-FRET), triple mutant del19/T790M/C797S. The gist of the method: as §1
Assay [3] has as its target EGFR L858R/T790M/C797S (Homo sapiens, UniProt P00533, C797S/L858R/T790M). Description: Biochemical EGFR kinase assay (Lance Ultra TR-FRET), triple mutant L858R/T790M/C797S. In outline: as §1
Assay [4] concerns the target EGFR wildtype (WT) (Homo sapiens, UniProt P00533). Description: Biochemical EGFR kinase assay (Lance Ultra TR-FRET), wildtype. The gist of the method:
as §1

Assay [5] deals with EGFR del19/C797S (Homo sapiens, UniProt P00533, C797S/DEL746-750). In words: Biochemical EGFR kinase assay (Lance Ultra TR-FRET), double mutant del19/C797S. In outline:
as §1

[6] abbreviates: IC50 L858R/C797S (nM) 100 μM ATP, 100 μM ATP.
The mark [7] stands for this setting: IC50 del19/T790M/C797S (nM) 100 μM ATP, 100 μM ATP.
Setting [8] is: IC50 L858R/T790M/C797S (nM) 100 μM ATP, 100 μM ATP.
[9] abbreviates: IC50 WT (nM) 100 μM ATP, 100 μM ATP.
Where [10] appears, read: IC50 del19/C797S (nM) 100 μM ATP, 100 μM ATP.
The mark [11] stands for this setting: Km ATP, read-out: IC50 L858R/C797S (nM) Km ATP.
[12] abbreviates: Km ATP, read-out: IC50 del19/T790M/C797S (nM) Km ATP.
Setting [13] is: Km ATP, read-out: IC50 L858R/T790M/C797S (nM) Km ATP.
[14] abbreviates: Km ATP, read-out: IC50 WT (nM) Km ATP.
The mark [15] stands for this setting: Km ATP, read-out: IC50 del19/C797S (nM) Km ATP.
Setting [16] is: Km ATP, read-out: IC50 L858R/C797S, Km ATP.
[17] abbreviates: Km ATP, read-out: IC50 del19/T790M/C797S, Km ATP.
Setting [18] is: Km ATP, read-out: IC50 L858R/T790M/C797S, Km ATP.
[19] abbreviates: Km ATP, read-out: IC50 WT, Km ATP.
[20] abbreviates: Km ATP, read-out: IC50 del19/C797S, Km ATP.

EGFR L858R/T790M/C797S, sequence (P00533 25-1210 T790M/C797S/L858R): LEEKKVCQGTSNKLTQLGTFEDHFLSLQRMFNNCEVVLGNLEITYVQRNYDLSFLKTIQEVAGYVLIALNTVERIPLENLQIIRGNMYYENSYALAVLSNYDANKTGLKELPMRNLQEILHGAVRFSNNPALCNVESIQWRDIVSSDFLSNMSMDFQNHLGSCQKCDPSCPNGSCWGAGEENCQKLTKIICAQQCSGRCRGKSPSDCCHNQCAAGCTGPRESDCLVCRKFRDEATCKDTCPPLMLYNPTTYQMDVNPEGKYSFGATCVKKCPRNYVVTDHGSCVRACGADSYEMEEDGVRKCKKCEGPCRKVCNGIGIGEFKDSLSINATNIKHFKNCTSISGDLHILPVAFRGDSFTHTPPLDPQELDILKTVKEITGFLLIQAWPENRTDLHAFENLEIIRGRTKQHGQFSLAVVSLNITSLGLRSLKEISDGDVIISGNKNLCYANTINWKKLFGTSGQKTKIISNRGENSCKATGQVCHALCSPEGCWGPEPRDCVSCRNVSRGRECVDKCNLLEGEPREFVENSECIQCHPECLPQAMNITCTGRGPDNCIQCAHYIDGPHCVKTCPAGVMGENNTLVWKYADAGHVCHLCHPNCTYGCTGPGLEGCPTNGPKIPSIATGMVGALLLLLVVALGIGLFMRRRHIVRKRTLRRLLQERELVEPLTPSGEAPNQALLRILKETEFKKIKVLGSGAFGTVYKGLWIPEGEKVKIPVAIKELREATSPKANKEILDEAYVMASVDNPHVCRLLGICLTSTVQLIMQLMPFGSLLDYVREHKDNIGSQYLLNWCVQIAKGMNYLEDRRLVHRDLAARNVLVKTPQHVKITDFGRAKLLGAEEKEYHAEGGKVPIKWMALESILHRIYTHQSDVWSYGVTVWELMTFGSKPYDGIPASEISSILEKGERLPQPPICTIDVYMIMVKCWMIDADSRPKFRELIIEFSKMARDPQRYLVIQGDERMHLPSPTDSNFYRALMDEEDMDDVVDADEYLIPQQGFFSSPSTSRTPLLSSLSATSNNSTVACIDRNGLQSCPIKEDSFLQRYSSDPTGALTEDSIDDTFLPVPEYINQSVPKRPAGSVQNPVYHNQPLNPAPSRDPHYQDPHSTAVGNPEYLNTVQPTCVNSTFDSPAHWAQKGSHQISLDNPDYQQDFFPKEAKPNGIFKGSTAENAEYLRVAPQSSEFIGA
EGFR L858R/C797S, sequence (P00533 25-1210 C797S/L858R): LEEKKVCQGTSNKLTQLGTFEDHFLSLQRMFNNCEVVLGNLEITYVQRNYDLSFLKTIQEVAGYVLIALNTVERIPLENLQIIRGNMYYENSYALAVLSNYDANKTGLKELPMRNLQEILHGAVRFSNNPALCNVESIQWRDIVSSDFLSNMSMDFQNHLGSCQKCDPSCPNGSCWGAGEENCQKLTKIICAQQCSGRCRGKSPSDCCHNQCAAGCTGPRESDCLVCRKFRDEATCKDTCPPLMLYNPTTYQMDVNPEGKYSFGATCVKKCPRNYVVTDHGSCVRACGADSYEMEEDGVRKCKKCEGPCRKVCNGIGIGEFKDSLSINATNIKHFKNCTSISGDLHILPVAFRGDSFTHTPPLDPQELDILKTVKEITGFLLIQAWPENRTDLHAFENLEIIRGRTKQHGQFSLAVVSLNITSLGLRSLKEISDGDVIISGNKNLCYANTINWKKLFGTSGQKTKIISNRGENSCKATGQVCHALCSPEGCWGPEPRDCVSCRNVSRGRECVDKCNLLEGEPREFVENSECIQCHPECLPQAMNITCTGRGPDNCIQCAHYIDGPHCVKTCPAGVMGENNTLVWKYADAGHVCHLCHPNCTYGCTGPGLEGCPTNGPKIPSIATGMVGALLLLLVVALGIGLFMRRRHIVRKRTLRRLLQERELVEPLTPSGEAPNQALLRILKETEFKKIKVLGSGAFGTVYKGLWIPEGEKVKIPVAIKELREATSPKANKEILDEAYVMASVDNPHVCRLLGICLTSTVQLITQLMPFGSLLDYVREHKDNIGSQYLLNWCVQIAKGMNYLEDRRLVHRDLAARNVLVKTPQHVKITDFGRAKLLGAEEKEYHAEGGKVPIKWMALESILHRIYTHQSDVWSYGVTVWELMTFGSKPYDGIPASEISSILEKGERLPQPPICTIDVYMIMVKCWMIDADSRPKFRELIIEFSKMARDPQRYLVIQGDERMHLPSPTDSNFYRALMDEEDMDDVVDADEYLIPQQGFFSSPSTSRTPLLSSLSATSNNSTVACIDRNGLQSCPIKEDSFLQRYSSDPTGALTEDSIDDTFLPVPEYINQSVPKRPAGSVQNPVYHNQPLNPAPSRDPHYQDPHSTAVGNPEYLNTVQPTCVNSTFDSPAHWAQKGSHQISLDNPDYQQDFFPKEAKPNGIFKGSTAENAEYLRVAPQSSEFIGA
EGFR wildtype (WT), sequence (P00533 25-1210): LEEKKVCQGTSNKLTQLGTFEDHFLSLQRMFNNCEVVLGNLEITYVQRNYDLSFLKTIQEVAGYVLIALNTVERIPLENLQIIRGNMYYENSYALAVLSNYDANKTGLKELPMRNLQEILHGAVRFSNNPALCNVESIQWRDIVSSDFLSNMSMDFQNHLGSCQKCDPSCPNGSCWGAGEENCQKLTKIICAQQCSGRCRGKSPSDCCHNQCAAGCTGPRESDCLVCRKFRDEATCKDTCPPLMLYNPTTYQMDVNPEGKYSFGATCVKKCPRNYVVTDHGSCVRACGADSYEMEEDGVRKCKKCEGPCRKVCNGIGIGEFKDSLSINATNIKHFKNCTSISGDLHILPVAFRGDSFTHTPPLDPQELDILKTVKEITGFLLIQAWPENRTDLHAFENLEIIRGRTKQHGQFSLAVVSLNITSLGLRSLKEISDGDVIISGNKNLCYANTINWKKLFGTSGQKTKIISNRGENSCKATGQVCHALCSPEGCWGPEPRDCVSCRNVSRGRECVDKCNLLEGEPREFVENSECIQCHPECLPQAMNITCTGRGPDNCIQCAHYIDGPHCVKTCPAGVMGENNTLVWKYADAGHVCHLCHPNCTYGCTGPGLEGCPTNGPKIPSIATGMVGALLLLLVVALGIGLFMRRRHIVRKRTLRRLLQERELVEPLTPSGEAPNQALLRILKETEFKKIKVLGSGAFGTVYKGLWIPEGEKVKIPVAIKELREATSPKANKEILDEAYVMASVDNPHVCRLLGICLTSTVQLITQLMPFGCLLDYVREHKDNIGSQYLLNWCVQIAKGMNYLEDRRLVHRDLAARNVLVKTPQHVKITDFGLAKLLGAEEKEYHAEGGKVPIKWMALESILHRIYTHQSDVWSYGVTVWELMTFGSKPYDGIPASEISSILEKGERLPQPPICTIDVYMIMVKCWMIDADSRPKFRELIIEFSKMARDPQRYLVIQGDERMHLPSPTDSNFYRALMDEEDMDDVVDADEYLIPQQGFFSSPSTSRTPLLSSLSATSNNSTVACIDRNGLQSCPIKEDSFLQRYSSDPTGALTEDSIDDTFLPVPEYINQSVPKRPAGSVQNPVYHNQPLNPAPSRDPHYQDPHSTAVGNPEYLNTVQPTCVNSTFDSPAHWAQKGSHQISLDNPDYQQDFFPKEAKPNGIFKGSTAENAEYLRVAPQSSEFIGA
EGFR del19/T790M/C797S, sequence (P00533 with tags, fused parts or gaps DEL746-750/T790M/C797S): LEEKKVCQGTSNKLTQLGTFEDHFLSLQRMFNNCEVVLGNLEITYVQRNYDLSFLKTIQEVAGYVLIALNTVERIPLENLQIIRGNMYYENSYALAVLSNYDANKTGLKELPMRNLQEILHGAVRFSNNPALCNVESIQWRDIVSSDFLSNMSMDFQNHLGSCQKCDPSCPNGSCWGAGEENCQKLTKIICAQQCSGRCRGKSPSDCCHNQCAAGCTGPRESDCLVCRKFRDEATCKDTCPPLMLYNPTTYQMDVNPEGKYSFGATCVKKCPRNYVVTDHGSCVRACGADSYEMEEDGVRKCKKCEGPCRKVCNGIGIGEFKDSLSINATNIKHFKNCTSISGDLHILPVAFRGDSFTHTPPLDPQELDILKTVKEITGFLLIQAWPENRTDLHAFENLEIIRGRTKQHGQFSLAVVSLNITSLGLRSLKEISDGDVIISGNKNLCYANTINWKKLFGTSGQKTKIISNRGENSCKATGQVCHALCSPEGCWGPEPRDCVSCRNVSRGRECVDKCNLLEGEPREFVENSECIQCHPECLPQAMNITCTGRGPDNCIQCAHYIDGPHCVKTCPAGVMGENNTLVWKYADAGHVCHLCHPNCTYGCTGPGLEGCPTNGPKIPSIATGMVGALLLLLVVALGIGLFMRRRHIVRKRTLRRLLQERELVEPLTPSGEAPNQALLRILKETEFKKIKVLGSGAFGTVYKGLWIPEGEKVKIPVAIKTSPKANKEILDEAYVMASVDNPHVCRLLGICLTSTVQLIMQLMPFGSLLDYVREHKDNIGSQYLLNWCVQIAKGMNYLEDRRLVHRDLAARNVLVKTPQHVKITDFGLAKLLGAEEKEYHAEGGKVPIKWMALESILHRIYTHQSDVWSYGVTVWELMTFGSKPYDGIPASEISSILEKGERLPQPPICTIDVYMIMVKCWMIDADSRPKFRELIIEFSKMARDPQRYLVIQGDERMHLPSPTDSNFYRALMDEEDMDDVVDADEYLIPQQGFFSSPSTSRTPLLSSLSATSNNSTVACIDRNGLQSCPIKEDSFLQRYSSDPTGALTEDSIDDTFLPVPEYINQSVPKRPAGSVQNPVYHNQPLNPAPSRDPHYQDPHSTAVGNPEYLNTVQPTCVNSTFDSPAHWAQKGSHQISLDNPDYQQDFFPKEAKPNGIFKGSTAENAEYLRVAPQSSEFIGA

Take `Cc1ncc(-c2cnc(Nc3ccnc(-c4cnn(S(=O)(=O)C5CC5)c4)n3)cc2N2CCC(O)CC2)s1` [Example 89, 1-(2-((2-(1-Cyclopropylsulfonylpyrazol-4-yl)pyrimidin-4-yl)amino)-5-(2-methylthiazol-5-yl)-4-pyridyl)piperidin-4-ol]: the IC50 in assay [1] (setting [6]) is 232 nM; in assay [2] (setting [7]), 1.3 nM; in assay [3] (setting [8]) it was 3.8 nM; in assay [4] (setting [9]), more than 10000 nM; in assay [5] (setting [10]), 82.5 nM.

As for `CN[C@H]1CC[C@@H](Oc2cc(Nc3ccnc(-c4cnn(S(=O)(=O)C5CC5)c4)n3)ncc2-c2ccn(C(F)F)n2)CC1` [Example 65, 2-(1-(Cyclopropylsulfonyl)-1H-pyrazol-4-yl)-N-(5-(1-(difluoromethyl)-1H-pyrazol-3-yl)-4-(((1s,4s)-4-(methylamino)cyclohexyl)oxy)pyridin-2-yl)pyrimidin-4-amine], the IC50 amounted to 622 nM in assay [1] (setting [6]); 33.5 nM in assay [1] (setting [11]); 1.2 nM in assay [2] (setting [7]); 0.8 nM in assay [2] (setting [12]); 4.2 nM in assay [3] (setting [8]); 0.6 nM in assay [3] (setting [13]). Further, the IC50 in assay [4] (setting [9]) is more than 10000 nM; in assay [4] (setting [14]), 149 nM; in assay [5] (setting [10]) it was 54.5 nM; in assay [5] (setting [15]), 33.5 nM.

On to `O=S(=O)(C1CC1)n1cc(-c2nccc(Nc3cc(N[C@H]4CC[C@](O)(C(F)(F)F)CC4)c(-c4ccn(C(F)F)n4)cn3)n2)cn1` [Example 11, (1s,4s)-4-((2-((2-(1-(Cyclopropylsulfonyl)-1H-pyrazol-4-yl)pyrimidin-4-yl)amino)-5-(1-(difluoromethyl)-1H-pyrazol-3-yl)pyridin-4-yl)amino)-1-(trifluoromethyl)cyclohexan-1-ol], for which the IC50 in assay [1] (read-out: IC50 L858R/C797S (nM) 100 μM ATP, 100 μM ATP) is 267 nM; in assay [2] (read-out: IC50 del19/T790M/C797S (nM) 100 μM ATP, 100 μM ATP) it was 8.6 nM; in assay [3] (read-out: IC50 L858R/T790M/C797S (nM) 100 μM ATP, 100 μM ATP) it was 21.8 nM; in assay [4] (read-out: IC50 WT (nM) 100 μM ATP, 100 μM ATP), more than 10000 nM; in assay [5] (read-out: IC50 del19/C797S (nM) 100 μM ATP, 100 μM ATP) it was 553 nM.

For the molecule `CS(=O)(=O)n1ccc(-c2nccc(Nc3cc(N[C@H]4CC[C@@](C)(O)CC4)c(-c4ccn(C(F)F)n4)cn3)n2)c1` [Example 108, (1s,4s)-4-((5-(1-(Difluoromethyl)-1H-pyrazol-3-yl)-2-((2-(1-(methylsulfonyl)-1H-pyrrol-3-yl)pyrimidin-4-yl)amino)pyridin-4-yl)amino)-1-methylcyclohexan-1-ol], the IC50 in assay [1] (setting [11]) was found to be 2 nM; in assay [2] (setting [12]), 1.2 nM; in assay [3] (setting [13]), 0.5 nM; in assay [4] (setting [14]), 57.2 nM; in assay [5] (setting [15]) it was 23.7 nM.

Regarding `Cn1ccc(-c2cnc(Nc3ccnc(-c4cnn(S(=O)(=O)C5CC5)c4)n3)cc2N[C@H]2CC[C@H](CCO)CC2)n1` [Example 134, 2-((1r,4r)-4-((2-((2-(1-(Cyclopropylsulfonyl)-1H-pyrazol-4-yl)pyrimidin-4-yl)amino)-5-(1-methyl-1H-pyrazol-3-yl)pyridin-4-yl)amino)cyclohexyl)ethan-1-ol], the IC50 in assay [1] (setting [6]) is 9.2 nM; in assay [1] (setting [11]) it was 0.4 nM; in assay [2] (setting [7]), 0.5 nM; in assay [2] (setting [12]), 0.2 nM; in assay [3] (setting [8]) it was 0.5 nM; in assay [3] (setting [13]) it was 0.1 nM. The IC50 in assay [4] (setting [9]) is more than 10000 nM; in assay [4] (setting [14]), 4.4 nM; in assay [5] (setting [10]), 0.8 nM; in assay [5] (setting [15]), 0.6 nM.

Consider `C[C@]1(F)CC[C@@H](Nc2cc(Nc3ccnc(-c4cnn(S(=O)(=O)C5CC5)c4)n3)ncc2-c2ccn(C(F)F)n2)CC1` [Example 220, N^2-(2-(1-(Cyclopropylsulfonyl)-1H-pyrazol-4-yl)pyrimidin-4-yl)-5-(1-(difluoromethyl)-1H-pyrazol-3-yl)-N^4-((1s,4s)-4-fluoro-4-methylcyclohexyl)pyridine-2,4-diamine], for which the IC50 in assay [1] (setting [11]) worked out at 463 nM; in assay [2] (setting [12]) it was 16.6 nM; in assay [3] (setting [13]), 11.4 nM; in assay [4] (setting [14]), 720 nM; in assay [5] (setting [15]), 539 nM.

`C[C@]1(O)CC[C@@H](Nc2nc(Nc3ccnc(-c4cnn(CC(F)F)c4)c3)ncc2-c2ccn(C(F)F)n2)CC1` [Example 362, (1s,4s)-4-((2-((2-(1-(2,2-Difluoroethyl)-1H-pyrazol-4-yl)pyridin-4-yl)amino)-5-(1-(difluoromethyl)-1H-pyrazol-3-yl)pyrimidin-4-yl)amino)-1-methylcyclohexan-1-ol]: the IC50 came out at 5 nM in assay [1] (setting [16]); 0.2 nM in assay [2] (setting [17]); 0.1 nM in assay [3] (setting [18]); 159 nM in assay [4] (setting [19]); 12.8 nM in assay [5] (setting [20]).

Take `CN(C)CCCn1ccc(-c2cnc(Nc3ccnc(-c4cnn(S(=O)(=O)C5CC5)c4)n3)cc2N[C@H]2CC[C@@H](C(C)(C)O)CC2)n1` [Example 278, 2-((1s,4s)-4-((2-((2-(1-(Cyclopropylsulfonyl)-1H-pyrazol-4-yl)pyrimidin-4-yl)amino)-5-(1-(3-(dimethylamino)propyl)-1H-pyrazol-3-yl)pyridin-4-yl)amino)cyclohexyl)propan-2-ol]: the IC50 came out at 3.4 nM in assay [1] (setting [6]); 0.3 nM in assay [1] (setting [11]); 0.4 nM in assay [2] (setting [7]); 0.6 nM in assay [2] (setting [12]); 0.3 nM in assay [3] (setting [8]); 0.1 nM in assay [3] (setting [13]). In addition, the IC50 in assay [4] (setting [9]) turned out to be 669 nM; in assay [4] (setting [14]), 1.2 nM; in assay [5] (setting [10]), 1 nM; in assay [5] (setting [15]) it was 0.6 nM.

Turning to `CN(CC(F)F)C(=O)[C@H]1CC[C@@H](Nc2cc(Nc3ccnc(-c4cnn(S(=O)(=O)C5CC5)c4)n3)ncc2-c2ccn(C)n2)CC1` [Example 235, (1s,4s)-4-((2-((2-(1-(Cyclopropylsulfonyl)-1H-pyrazol-4-yl)pyrimidin-4-yl)amino)-5-(1-methyl-1H-pyrazol-3-yl)pyridin-4-yl)amino)-N-(2,2-difluoroethyl)-N-methylcyclohexane-1-carboxamide], the IC50 in assay [1] (setting [6]) came out at 7 nM; in assay [1] (setting [11]) it was 0.3 nM; in assay [2] (setting [7]) it was 0.2 nM; in assay [2] (setting [12]), 0.2 nM; in assay [3] (setting [8]), 0.2 nM; in assay [3] (setting [13]) it was 0.1 nM. The IC50 is 616 nM in assay [4] (setting [9]), 1.6 nM in assay [4] (setting [14]), 1.1 nM in assay [5] (setting [10]) and 2.5 nM in assay [5] (setting [15]).

For the molecule `C[C@]1(O)CC[C@@H](Nc2cc(Nc3ccnc(N4CCC[C@@H](O)C4)n3)ncc2-c2ccn(C(F)F)n2)CC1` [Example 352, (R)-1-(4-((5-(1-(Difluoromethyl)-1H-pyrazol-3-yl)-4-(((1s,4S)-4-hydroxy-4-methylcyclohexyl)amino)pyridin-2-yl)amino)pyrimidin-2-yl)piperidin-3-ol], the IC50 in assay [1] (setting [16]) was found to be 105 nM; in assay [2] (setting [17]) it was 7.3 nM; in assay [3] (setting [18]), 4.8 nM; in assay [4] (setting [19]), 457 nM; in assay [5] (setting [20]), 653 nM.

Turning to `CC(C)c1cc(-c2cnc(Nc3ccnc(-c4cnn(S(=O)(=O)C5CC5)c4)n3)cc2N[C@H]2CC[C@@](C)(O)CC2)on1` [Example 64, (1s,4s)-4-((2-((2-(1-(Cyclopropylsulfonyl)-1H-pyrazol-4-yl)pyrimidin-4-yl)amino)-5-(3-isopropylisoxazol-5-yl)pyridin-4-yl)amino)-1-methylcyclohexan-1-ol], the IC50 in assay [1] (setting [6]) is 21 nM; in assay [2] (setting [7]) it was 1 nM; in assay [2] (setting [12]), 1 nM; in assay [3] (setting [13]) it was 0.5 nM; in assay [4] (setting [9]), more than 10000 nM; in assay [4] (setting [14]), 42.9 nM. The IC50 in assay [5] (setting [10]) was determined as 3.3 nM; in assay [5] (setting [15]), 2.7 nM.

On to `Cn1ccc(-c2cnc(Nc3ccnc(-c4cnn(S(=O)(=O)C5CC5)c4)n3)cc2NC[C@H]2CC[C@@H](O)C2)n1` [Example 118, (1R,3S)-3-(((2-((2-(1-(Cyclopropylsulfonyl)-1H-pyrazol-4-yl)pyrimidin-4-yl)amino)-5-(1-methyl-1H-pyrazol-3-yl)pyridin-4-yl)amino)methyl)cyclopentan-1-ol], for which the IC50 in assay [1] (setting [6]) was 3.6 nM; in assay [1] (setting [11]) it was 0.2 nM; in assay [2] (setting [7]), 0.2 nM; in assay [2] (setting [12]) it was 0.2 nM; in assay [3] (setting [8]) it was 0.3 nM; in assay [3] (setting [13]), 0.1 nM. Further, the IC50 amounted to 1320 nM in assay [4] (setting [9]), 4.9 nM in assay [4] (setting [14]), 0.2 nM in assay [5] (setting [10]) and 0.3 nM in assay [5] (setting [15]).
